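Briefly, cells in 96-well plates were exposed to five compound concentrations for 48 h, and endpoints were estimated by linear interpolation. The concentration for 50% growth inhibition is given as GI50. The concentration for full growth arrest is given as TGI.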
Columns and labels:
Test in all cases: NCI anticancer screen, dose series, 48 h
HCT-116 colon = test system: HCT-116 colon
K-562 leukemia = test system: K-562 leukemia
SNB-75 CNS = test system: SNB-75 CNS
DU-145 prostate = test system: DU-145 prostate
BT-549 breast = test system: BT-549 breast
SNB-19 CNS = test system: SNB-19 CNS
HCT-15 colon = test system: HCT-15 colon
HCC-2998 colon = test system: HCC-2998 colon
CCRF-CEM leukemia = test system: CCRF-CEM leukemia
HS 578T breast = test system: HS 578T breast
SK-OV-3 ovarian = test system: SK-OV-3 ovarian
MDA-MB-231 breast = test system: MDA-MB-231 breast
M14 melanoma = test system: M14 melanoma
UO-31 renal = test system: UO-31 renal
SW-620 colon = test system: SW-620 colon
MOLT-4 leukemia = test system: MOLT-4 leukemia
NCI-H522 lung = test system: NCI-H522 lung
KM12 colon = test system: KM12 colon
OVCAR-4 ovarian = test system: OVCAR-4 ovarian
SN12C renal = test system: SN12C renal
NCI-H226 lung = test system: NCI-H226 lung
A549 NSCLC = test system: A549 NSCLC
U251 CNS = test system: U251 CNS
NCI-H460 lung = test system: NCI-H460 lung
MCF7 breast = test system: MCF7 breast
RPMI-8226 leukemia = test system: RPMI-8226 leukemia
RXF 393 renal = test system: RXF 393 renal
MALME-3M melanoma = test system: MALME-3M melanoma
SK-MEL-28 melanoma = test system: SK-MEL-28 melanoma
SF-295 CNS = test system: SF-295 CNS
PC-3 prostate = test system: PC-3 prostate
SK-MEL-5 melanoma = test system: SK-MEL-5 melanoma
ACHN renal = test system: ACHN renal
COLO 205 colon = test system: COLO 205 colon
UACC-62 melanoma = test system: UACC-62 melanoma
OVCAR-8 ovarian = test system: OVCAR-8 ovarian
LOX IMVI melanoma = test system: LOX IMVI melanoma
A498 renal = test system: A498 renal
NCI/ADR-RES ovarian = test system: NCI/ADR-RES ovarian
HOP-62 NSCLC = test system: HOP-62 NSCLC
HT29 colon = test system: HT29 colon
786-0 renal = test system: 786-0 renal
SF-268 CNS = test system: SF-268 CNS
CAKI-1 renal = test system: CAKI-1 renal
NCI-H23 lung = test system: NCI-H23 lung
SF-539 CNS = test system: SF-539 CNS
OVCAR-3 ovarian = test system: OVCAR-3 ovarian
TK-10 renal = test system: TK-10 renal
OVCAR-5 ovarian = test system: OVCAR-5 ovarian
IGROV1 ovarian = test system: IGROV1 ovarian
SR leukemia = test system: SR leukemia
T-47D breast = test system: T-47D breast
SK-MEL-2 melanoma = test system: SK-MEL-2 melanoma
HL-60(TB) leukemia = test system: HL-60(TB) leukemia
HOP-92 NSCLC = test system: HOP-92 NSCLC
UACC-257 melanoma = test system: UACC-257 melanoma
MDA-MB-435 = test system: MDA-MB-435
EKVX NSCLC = test system: EKVX NSCLC

## Nc1c(C(=O)Nc2ccccn2)sc2nc3c(cc12)C(=O)CCC3
HCT-116 colon
  GI50: 0.52 µM
  TGI: > 100 µM
K-562 leukemia
  GI50: 0.463 µM
  TGI: > 100 µM
SNB-75 CNS
  GI50: 0.646 µM
  TGI: 22.2 µM
DU-145 prostate
  GI50: 1.98 µM
  TGI: > 100 µM
BT-549 breast
  GI50: 0.332 µM
  TGI: > 100 µM
SNB-19 CNS
  GI50: 1.3 µM
  TGI: > 100 µM
HCT-15 colon
  GI50: 0.812 µM
  TGI: > 100 µM
HCC-2998 colon
  GI50: 3.15 µM
  TGI: > 100 µM
CCRF-CEM leukemia
  GI50: 0.79 µM
  TGI: > 100 µM
HS 578T breast
  GI50: 0.804 µM
  TGI: 93.7 µM
SK-OV-3 ovarian
  GI50: 1.41 µM
  TGI: > 100 µM
MDA-MB-231 breast
  GI50: 4.54 µM
  TGI: > 100 µM
M14 melanoma
  GI50: 0.483 µM
  TGI: > 100 µM
UO-31 renal
  GI50: 9.45 µM
  TGI: > 100 µM
SW-620 colon
  GI50: 0.706 µM
  TGI: > 100 µM
MOLT-4 leukemia
  GI50: > 100 µM
  TGI: > 100 µM
NCI-H522 lung
  GI50: 0.595 µM
  TGI: > 100 µM
KM12 colon
  GI50: 0.762 µM
  TGI: > 100 µM
OVCAR-4 ovarian
  GI50: 6.26 µM
  TGI: > 100 µM
SN12C renal
  GI50: 3.36 µM
  TGI: > 100 µM
NCI-H226 lung
  GI50: 3.62 µM
  TGI: > 100 µM
A549 NSCLC
  GI50: 1.78 µM
  TGI: > 100 µM
U251 CNS
  GI50: 1.34 µM
  TGI: > 100 µM
NCI-H460 lung
  GI50: 0.596 µM
  TGI: > 100 µM
MCF7 breast
  GI50: 0.435 µM
  TGI: > 100 µM
RPMI-8226 leukemia
  GI50: 3.24 µM
  TGI: > 100 µM
RXF 393 renal
  GI50: 1.11 µM
  TGI: 8.88 µM
MALME-3M melanoma
  GI50: 13.1 µM
  TGI: > 100 µM
SK-MEL-28 melanoma
  GI50: 13.4 µM
  TGI: > 100 µM
SF-295 CNS
  GI50: 0.473 µM
  TGI: > 100 µM
PC-3 prostate
  GI50: 1.43 µM
  TGI: > 100 µM
SK-MEL-5 melanoma
  GI50: 0.444 µM
  TGI: > 100 µM
ACHN renal
  GI50: 6.06 µM
  TGI: > 100 µM
COLO 205 colon
  GI50: 0.908 µM
  TGI: 26 µM
UACC-62 melanoma
  GI50: 0.621 µM
  TGI: > 100 µM
OVCAR-8 ovarian
  GI50: 6.52 µM
  TGI: > 100 µM
LOX IMVI melanoma
  GI50: 4.18 µM
  TGI: > 100 µM
A498 renal
  GI50: 0.345 µM
  TGI: > 100 µM
NCI/ADR-RES ovarian
  GI50: 0.929 µM
  TGI: > 100 µM
HOP-62 NSCLC
  GI50: 1.75 µM
  TGI: > 100 µM
HT29 colon
  GI50: 0.47 µM
  TGI: > 100 µM
786-0 renal
  GI50: 1.33 µM
  TGI: 44.6 µM
SF-268 CNS
  GI50: 8.26 µM
  TGI: > 100 µM
CAKI-1 renal
  GI50: 0.697 µM
  TGI: > 100 µM
NCI-H23 lung
  GI50: 3.29 µM
  TGI: > 100 µM
SF-539 CNS
  GI50: 1.17 µM
  TGI: 5.65 µM
OVCAR-3 ovarian
  GI50: 0.792 µM
  TGI: 14.7 µM
TK-10 renal
  GI50: 22.3 µM
  TGI: > 100 µM
OVCAR-5 ovarian
  GI50: 9.53 µM
  TGI: > 100 µM
IGROV1 ovarian
  GI50: 2.23 µM
  TGI: > 100 µM
SR leukemia
  GI50: 2.75 µM
  TGI: > 100 µM
T-47D breast
  GI50: 4.89 µM
  TGI: > 100 µM
SK-MEL-2 melanoma
  GI50: 0.443 µM
  TGI: > 100 µM
HL-60(TB) leukemia
  GI50: 0.689 µM
  TGI: 5.27 µM
HOP-92 NSCLC
  GI50: 27.7 µM
  TGI: > 100 µM
UACC-257 melanoma
  GI50: 69.8 µM
  TGI: > 100 µM

## CC1(C)CCc2c(ccc(C(=O)/C=C/c3ccc(O)cc3)c2O)O1
HCT-116 colon
  TGI: 20 µM
K-562 leukemia
  TGI: 75 µM
DU-145 prostate
  TGI: 18.6 µM
BT-549 breast
  TGI: 22.3 µM
SNB-19 CNS
  TGI: 25.8 µM
HCT-15 colon
  TGI: 20.5 µM
CCRF-CEM leukemia
  TGI: 13.2 µM
HS 578T breast
  TGI: 27.2 µM
SK-OV-3 ovarian
  TGI: 74.6 µM
MDA-MB-231 breast
  TGI: 18.9 µM
M14 melanoma
  TGI: 20.7 µM
UO-31 renal
  TGI: 25.5 µM
SW-620 colon
  TGI: 24.4 µM
MOLT-4 leukemia
  TGI: 69.1 µM
OVCAR-4 ovarian
  TGI: 19.6 µM
SN12C renal
  TGI: 20.7 µM
NCI-H226 lung
  TGI: 22.3 µM
A549 NSCLC
  TGI: 25.8 µM
U251 CNS
  TGI: 20.1 µM
MDA-MB-435
  TGI: 19.9 µM
NCI-H460 lung
  TGI: 22.2 µM
MCF7 breast
  TGI: 29.4 µM
RPMI-8226 leukemia
  TGI: 20.8 µM
RXF 393 renal
  TGI: 20.4 µM
MALME-3M melanoma
  TGI: 16.3 µM
SK-MEL-28 melanoma
  TGI: 17 µM
SF-295 CNS
  TGI: 26.1 µM
PC-3 prostate
  TGI: 17.8 µM
SK-MEL-5 melanoma
  TGI: 22 µM
ACHN renal
  TGI: 20.5 µM
COLO 205 colon
  TGI: 20.7 µM
UACC-62 melanoma
  TGI: 19.6 µM
OVCAR-8 ovarian
  TGI: 22 µM
LOX IMVI melanoma
  TGI: 19.8 µM
A498 renal
  TGI: 29.8 µM
NCI/ADR-RES ovarian
  TGI: 21.6 µM
HOP-62 NSCLC
  TGI: 19.4 µM
HT29 colon
  TGI: 23.9 µM
SF-268 CNS
  TGI: 23.2 µM
CAKI-1 renal
  TGI: 15.8 µM
NCI-H23 lung
  TGI: 22.7 µM
SF-539 CNS
  TGI: 22 µM
OVCAR-3 ovarian
  TGI: 18.3 µM
TK-10 renal
  TGI: 20 µM
OVCAR-5 ovarian
  TGI: 21.7 µM
IGROV1 ovarian
  TGI: 19.9 µM
SR leukemia
  TGI: 30.5 µM
T-47D breast
  TGI: 21 µM
SK-MEL-2 melanoma
  TGI: 23.5 µM
HL-60(TB) leukemia
  TGI: 44.2 µM
HOP-92 NSCLC
  TGI: 24.4 µM
EKVX NSCLC
  TGI: 10.1 µM
UACC-257 melanoma
  TGI: 23.4 µM
